Data: ChEMBL document CHEMBL1121908, “Membrane effects of antiinflammatory agents. 1. Interaction of sulindac and its metabolites with phospholipid membrane, a magnetic resonance study” (J Med Chem, 1981)

Assays:
Type in all cases: subcellular
Liposome [1] = test: The compound was evaluated for percent incorporation in DOPC vesicles, when compound to lipid mol ratio is 2
Liposome [2] = test: The compound was evaluated for percent incorporation in DOPC vesicles, when compound to lipid mol ratio is 3.5
Liposome [3] = test: The compound was evaluated for percent incorporation in DOPC vesicles, when compound to lipid mol ratio is 0.1

| Compound | Incorporation (Liposome [1]) [%] | Incorporation (Liposome [2]) [%] | Incorporation (Liposome [3]) [%] |
| --- | --- | --- | --- |
| CSc1ccc(/C=C2/C(C)=C(CC(=O)O)c3cc(F)ccc32)cc1 | 41 | 25 | 74 |
| CC1=C(CC(=O)O)c2cc(F)ccc2/C1=C\c1ccc([S+](C)[O-])cc1 (stereo not given) | 5 |  | 7 |
